Results taken from PubChem BioAssay (NCI).
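96-well plates; 48 h exposure; 5 concentrations. Endpoints by linear interpolation between flanking doses. Not reached: highest tested concentration assigned. The concentration for 50% growth inhibition is given as GI50. TGI: concentration producing complete growth inhibition.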

Key:
Assay in all cases: growth of human tumour cells (NCI), 48 h; in the data active means GI50 below about 0.43 µM; inactive means the rest
SN12C renal = test system: SN12C renal
HL-60(TB) leukemia = test system: HL-60(TB) leukemia
NCI/ADR-RES ovarian = test system: NCI/ADR-RES ovarian
U251 CNS = test system: U251 CNS
OVCAR-4 ovarian = test system: OVCAR-4 ovarian
MDA-MB-231 breast = test system: MDA-MB-231 breast
SW-620 colon = test system: SW-620 colon
CCRF-CEM leukemia = test system: CCRF-CEM leukemia
PC-3 prostate = test system: PC-3 prostate
K-562 leukemia = test system: K-562 leukemia
NCI-H23 lung = test system: NCI-H23 lung
OVCAR-8 ovarian = test system: OVCAR-8 ovarian
SF-539 CNS = test system: SF-539 CNS
T-47D breast = test system: T-47D breast
SK-OV-3 ovarian = test system: SK-OV-3 ovarian
SK-MEL-2 melanoma = test system: SK-MEL-2 melanoma
SF-295 CNS = test system: SF-295 CNS
786-0 renal = test system: 786-0 renal
UACC-62 melanoma = test system: UACC-62 melanoma
COLO 205 colon = test system: COLO 205 colon
MOLT-4 leukemia = test system: MOLT-4 leukemia
HT29 colon = test system: HT29 colon
UO-31 renal = test system: UO-31 renal
A498 renal = test system: A498 renal
NCI-H460 lung = test system: NCI-H460 lung
HOP-92 NSCLC = test system: HOP-92 NSCLC
MCF7 breast = test system: MCF7 breast
IGROV1 ovarian = test system: IGROV1 ovarian
SF-268 CNS = test system: SF-268 CNS
NCI-H522 lung = test system: NCI-H522 lung
MALME-3M melanoma = test system: MALME-3M melanoma
SK-MEL-5 melanoma = test system: SK-MEL-5 melanoma
RXF 393 renal = test system: RXF 393 renal
HCT-15 colon = test system: HCT-15 colon
TK-10 renal = test system: TK-10 renal
HS 578T breast = test system: HS 578T breast
A549 NSCLC = test system: A549 NSCLC
LOX IMVI melanoma = test system: LOX IMVI melanoma
M14 melanoma = test system: M14 melanoma
SNB-75 CNS = test system: SNB-75 CNS
MDA-MB-435 = test system: MDA-MB-435
NCI-H226 lung = test system: NCI-H226 lung
BT-549 breast = test system: BT-549 breast
SNB-19 CNS = test system: SNB-19 CNS
HCT-116 colon = test system: HCT-116 colon
SR leukemia = test system: SR leukemia
SK-MEL-28 melanoma = test system: SK-MEL-28 melanoma
HOP-62 NSCLC = test system: HOP-62 NSCLC
EKVX NSCLC = test system: EKVX NSCLC
KM12 colon = test system: KM12 colon
HCC-2998 colon = test system: HCC-2998 colon
OVCAR-3 ovarian = test system: OVCAR-3 ovarian
ACHN renal = test system: ACHN renal
OVCAR-5 ovarian = test system: OVCAR-5 ovarian
RPMI-8226 leukemia = test system: RPMI-8226 leukemia
UACC-257 melanoma = test system: UACC-257 melanoma

CCC(C)[C@H]1C(=O)O[C@H](C(C)C)C(=O)N(C)[C@@H](C(C)C)C(=O)O[C@H](C(C)C)C(=O)N(C)[C@@H](C(C)C)C(=O)O[C@H](C(C)C)C(=O)N1C (some centres not stated)
6010 nM: TGI (HOP-92 NSCLC)
> 10000 nM: TGI (SN12C renal) | TGI (NCI/ADR-RES ovarian) | TGI (U251 CNS) | TGI (OVCAR-4 ovarian) | TGI (SW-620 colon) | TGI (CCRF-CEM leukemia) | TGI (PC-3 prostate) | TGI (K-562 leukemia) | TGI (NCI-H23 lung) | TGI (OVCAR-8 ovarian) | TGI (SF-539 CNS) | TGI (SK-MEL-2 melanoma) | TGI (SF-295 CNS) | TGI (786-0 renal) | TGI (UACC-62 melanoma) | TGI (HT29 colon) | TGI (UO-31 renal) | TGI (NCI-H460 lung) | TGI (MCF7 breast) | TGI (IGROV1 ovarian) | TGI (SF-268 CNS) | TGI (NCI-H522 lung) | TGI (MALME-3M melanoma) | TGI (RXF 393 renal) | TGI (HCT-15 colon) | TGI (TK-10 renal) | TGI (HS 578T breast) | TGI (A549 NSCLC) | TGI (LOX IMVI melanoma) | TGI (M14 melanoma) | TGI (SNB-75 CNS) | TGI (MDA-MB-435) | TGI (NCI-H226 lung) | TGI (BT-549 breast) | TGI (SNB-19 CNS) | TGI (HCT-116 colon) | TGI (SR leukemia) | TGI (SK-MEL-28 melanoma) | TGI (HOP-62 NSCLC) | TGI (EKVX NSCLC) | TGI (KM12 colon) | TGI (HCC-2998 colon) | TGI (OVCAR-3 ovarian) | TGI (ACHN renal) | TGI (OVCAR-5 ovarian) | TGI (UACC-257 melanoma)
8150 nM: TGI (MDA-MB-231 breast)
2920 nM: TGI (SK-MEL-5 melanoma)
7590 nM: TGI (SK-OV-3 ovarian)
9710 nM: TGI (A498 renal)
2940 nM: TGI (COLO 205 colon)
9970 nM: TGI (MOLT-4 leukemia)
inactive: GI50 (SN12C renal) 1720 nM | GI50 (HL-60(TB) leukemia) 2460 nM | GI50 (NCI/ADR-RES ovarian) 2120 nM | GI50 (U251 CNS) 2190 nM | GI50 (OVCAR-4 ovarian) 2010 nM | GI50 (MDA-MB-231 breast) 2560 nM | GI50 (SW-620 colon) 3100 nM | GI50 (CCRF-CEM leukemia) 3000 nM | GI50 (PC-3 prostate) 1560 nM | GI50 (K-562 leukemia) 1460 nM | GI50 (NCI-H23 lung) 1680 nM | GI50 (OVCAR-8 ovarian) 2110 nM | GI50 (SF-539 CNS) 3650 nM | GI50 (T-47D breast) 1080 nM | GI50 (SK-OV-3 ovarian) 2470 nM | GI50 (SK-MEL-2 melanoma) 3810 nM | GI50 (SF-295 CNS) 717 nM | GI50 (786-0 renal) 3090 nM | GI50 (UACC-62 melanoma) 631 nM | GI50 (COLO 205 colon) 1230 nM | GI50 (MOLT-4 leukemia) 3610 nM | GI50 (HT29 colon) 2570 nM | GI50 (UO-31 renal) 1030 nM | GI50 (A498 renal) 2610 nM | GI50 (NCI-H460 lung) 1650 nM | GI50 (HOP-92 NSCLC) 1210 nM | GI50 (MCF7 breast) 1260 nM | GI50 (IGROV1 ovarian) 3510 nM | GI50 (SF-268 CNS) 3850 nM | GI50 (NCI-H522 lung) 1610 nM | GI50 (MALME-3M melanoma) 577 nM | GI50 (SK-MEL-5 melanoma) 761 nM | GI50 (RXF 393 renal) 2730 nM | GI50 (HCT-15 colon) 2700 nM | GI50 (TK-10 renal) 2580 nM | GI50 (HS 578T breast) 4640 nM | GI50 (A549 NSCLC) 3000 nM | GI50 (LOX IMVI melanoma) 1940 nM | GI50 (M14 melanoma) 1660 nM | GI50 (SNB-75 CNS) 2750 nM | GI50 (MDA-MB-435) 2460 nM | GI50 (NCI-H226 lung) 3620 nM | GI50 (BT-549 breast) 2500 nM | GI50 (SNB-19 CNS) 2070 nM | GI50 (HCT-116 colon) 2080 nM | GI50 (SR leukemia) 3670 nM | GI50 (SK-MEL-28 melanoma) 2720 nM | GI50 (HOP-62 NSCLC) 3520 nM | GI50 (EKVX NSCLC) 2100 nM | GI50 (KM12 colon) 1570 nM | GI50 (HCC-2998 colon) 2670 nM | GI50 (OVCAR-3 ovarian) 704 nM | GI50 (ACHN renal) 788 nM | GI50 (OVCAR-5 ovarian) 3210 nM | GI50 (RPMI-8226 leukemia) 457 nM | GI50 (UACC-257 melanoma) 2080 nM
7810 nM: TGI (T-47D breast)
4930 nM: TGI (RPMI-8226 leukemia)
5260 nM: TGI (HL-60(TB) leukemia)
